Reference: paper PMC5797045, “Characterization of CDK(5) inhibitor, 20-223 (aka CP668863) for colorectal cancer therapy” (Oncotarget, 2017)

Experiments:
CDK2 = target: T1, CDK2 (Homo sapiens, UniProt P24941); assay: cell-free kinase assay, 10-point dose response; format: biochemical
T1 construct: with Cyclin E

CDK5 = target: T2, CDK5 (Homo sapiens, UniProt Q00535); assay: cell-free kinase assay, 10-point dose response; format: biochemical
T2 construct: with p35
T2 sequence (Q00535 whole entry): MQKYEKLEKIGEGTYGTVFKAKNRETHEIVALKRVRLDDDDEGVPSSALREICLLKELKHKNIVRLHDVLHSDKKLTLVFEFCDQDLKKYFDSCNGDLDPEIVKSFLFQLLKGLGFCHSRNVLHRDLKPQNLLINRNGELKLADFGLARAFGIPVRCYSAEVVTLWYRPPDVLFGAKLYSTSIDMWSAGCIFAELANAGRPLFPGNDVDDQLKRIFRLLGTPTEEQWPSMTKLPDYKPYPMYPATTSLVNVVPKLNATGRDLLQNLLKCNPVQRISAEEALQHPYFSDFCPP
T2 sequence (Q15078 2-307 partner): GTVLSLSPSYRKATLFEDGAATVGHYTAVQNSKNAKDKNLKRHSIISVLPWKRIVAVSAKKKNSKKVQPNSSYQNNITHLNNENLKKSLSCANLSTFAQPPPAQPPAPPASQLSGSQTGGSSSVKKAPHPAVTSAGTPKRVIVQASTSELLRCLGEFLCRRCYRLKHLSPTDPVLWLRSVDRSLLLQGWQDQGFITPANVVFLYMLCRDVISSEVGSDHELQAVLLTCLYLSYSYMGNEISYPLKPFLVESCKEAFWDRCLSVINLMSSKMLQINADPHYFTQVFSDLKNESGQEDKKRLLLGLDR

- IC50 (CDK2): 6 nM
- IC50 (CDK5): 8.8 nM
SMILES: O=C(Cc1ccc2ccccc2c1)Nc1cc(C2CCC2)[nH]n1 [20-223]
